pIC50: −log10 of the molar value. Like-named read-outs stand apart in the source and are kept apart here.
Experiments:
Format in all cases: biochemical
JAK1 = JAK1 (Homo sapiens (Human), UniProt P23458); test: JAK1 Inhibition Assay (Example B, Omnia kinase fluorescence peptide substrate assay)
Text: (§1) The assays described in Examples A, B, C and D for the determination of Tyk2, JAK1, JAK2 and JAK3 kinase activity, respectively, utilized the Omnia® Kinase fluorescence peptide substrate-based technology (Invitrogen). The specific components of the assay mixture are described in Examples A, B, C and D. In these assays, Mg^2+ is chelated upon phosphorylation of the Omnia peptide by the kinase to form a bridge between the chelation-enhanced fluorophore Sox and the phosphate, resulting in an increase in fluorescence emission at 485 nm when excited at […]. The reactions were therefore read at excitation 360 nm and emission was measured at 485 nm every 50 seconds for 45 minutes using a PerkinElmer EnVision Multilabel Plate Reader.
(§2) The final buffer conditions for Tyk2, JAK1, JAK2, and JAK3 assays were as follows: 25 mM HEPES, pH 7.4, 10 mM MgCl2, 0.01% Triton X-100 and 1 mM DTT.
(§3) Two-μL aliquots of these were transferred to a fresh plate for a ten-fold intermediate dilution with assay buffer. Five-μL aliquots of the diluted compounds were then transferred to 20-μL of assay mixtures described in Examples A, B, C and D for a final concentration of DMSO of 2%. […] For each plate, percent of control (POC) values were calculated for each well according to the following equation: […]
(§4) IC50's were estimated from the POC's using a standard 4-parameter logistic model:
(§5) The IC50 is defined as the concentration of inhibitor at which the POC equals 50 for the fitted curve.
(§6) Compounds of Formula I were screened for their ability to inhibit JAK1 using the general enzyme inhibition assay method, in which the assay mixture contained 1 mM ATP, 8 μM Omnia® Y12 peptide (Catalog # IVGN KPZ3121C; Invitrogen Corporation, Carlsbad, Calif.) and 12.5 nM JAK1 in a total volume of 25 μL. JAK1 was purchased from Invitrogen Corporation, Carlsbad, Calif. (catalog # IVGN PV4775).

JAK2 = JAK2 (Homo sapiens (Human), UniProt O60674); test: JAK2 Inhibition Assay (Example C, Omnia kinase fluorescence peptide substrate assay); settings: JAK2 Enzyme IC50 1 mM ATP, averaged IC50 ranges
Chain of JAK2 (O60674 whole entry): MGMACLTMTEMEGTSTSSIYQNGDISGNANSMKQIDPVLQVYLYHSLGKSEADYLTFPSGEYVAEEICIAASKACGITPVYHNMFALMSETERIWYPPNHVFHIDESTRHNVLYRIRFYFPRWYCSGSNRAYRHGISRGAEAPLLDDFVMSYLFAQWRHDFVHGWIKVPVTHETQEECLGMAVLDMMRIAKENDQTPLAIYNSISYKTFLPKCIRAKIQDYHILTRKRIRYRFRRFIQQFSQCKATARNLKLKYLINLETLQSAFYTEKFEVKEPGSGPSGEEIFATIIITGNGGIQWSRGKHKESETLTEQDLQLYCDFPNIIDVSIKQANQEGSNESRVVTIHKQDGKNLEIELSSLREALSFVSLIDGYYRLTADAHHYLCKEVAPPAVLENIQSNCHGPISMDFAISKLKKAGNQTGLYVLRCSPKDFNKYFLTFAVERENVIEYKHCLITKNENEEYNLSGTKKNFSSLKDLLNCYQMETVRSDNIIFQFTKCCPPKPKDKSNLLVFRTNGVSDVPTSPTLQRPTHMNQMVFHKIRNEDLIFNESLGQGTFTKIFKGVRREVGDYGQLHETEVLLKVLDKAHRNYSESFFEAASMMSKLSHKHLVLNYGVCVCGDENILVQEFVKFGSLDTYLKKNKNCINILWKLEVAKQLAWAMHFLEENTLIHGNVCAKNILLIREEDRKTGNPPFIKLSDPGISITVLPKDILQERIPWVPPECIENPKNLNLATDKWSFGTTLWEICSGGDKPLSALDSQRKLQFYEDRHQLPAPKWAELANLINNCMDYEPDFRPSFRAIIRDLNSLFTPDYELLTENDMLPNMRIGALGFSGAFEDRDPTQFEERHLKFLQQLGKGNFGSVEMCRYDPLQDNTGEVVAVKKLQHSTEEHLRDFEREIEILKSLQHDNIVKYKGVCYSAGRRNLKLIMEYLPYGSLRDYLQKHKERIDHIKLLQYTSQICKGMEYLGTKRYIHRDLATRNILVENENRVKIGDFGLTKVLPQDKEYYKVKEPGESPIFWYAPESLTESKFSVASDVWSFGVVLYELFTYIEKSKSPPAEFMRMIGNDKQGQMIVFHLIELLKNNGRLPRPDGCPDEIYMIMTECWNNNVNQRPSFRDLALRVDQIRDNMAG
Text: as §1, §2, §3, §4, §5
as §6, with “JAK2” for “JAK1”, “10” for “8”, “Y7” for “Y12”, “KNZ3071C,” for “KPZ3121C;”, “4” for “12.5”, “PV4288).” for “PV4775).”

JAK3 = JAK3 (Homo sapiens (Human), UniProt P52333); test: JAK3 Inhibition Assay (Example D, Omnia kinase fluorescence peptide substrate assay)
Chain of JAK3 (P52333 whole entry): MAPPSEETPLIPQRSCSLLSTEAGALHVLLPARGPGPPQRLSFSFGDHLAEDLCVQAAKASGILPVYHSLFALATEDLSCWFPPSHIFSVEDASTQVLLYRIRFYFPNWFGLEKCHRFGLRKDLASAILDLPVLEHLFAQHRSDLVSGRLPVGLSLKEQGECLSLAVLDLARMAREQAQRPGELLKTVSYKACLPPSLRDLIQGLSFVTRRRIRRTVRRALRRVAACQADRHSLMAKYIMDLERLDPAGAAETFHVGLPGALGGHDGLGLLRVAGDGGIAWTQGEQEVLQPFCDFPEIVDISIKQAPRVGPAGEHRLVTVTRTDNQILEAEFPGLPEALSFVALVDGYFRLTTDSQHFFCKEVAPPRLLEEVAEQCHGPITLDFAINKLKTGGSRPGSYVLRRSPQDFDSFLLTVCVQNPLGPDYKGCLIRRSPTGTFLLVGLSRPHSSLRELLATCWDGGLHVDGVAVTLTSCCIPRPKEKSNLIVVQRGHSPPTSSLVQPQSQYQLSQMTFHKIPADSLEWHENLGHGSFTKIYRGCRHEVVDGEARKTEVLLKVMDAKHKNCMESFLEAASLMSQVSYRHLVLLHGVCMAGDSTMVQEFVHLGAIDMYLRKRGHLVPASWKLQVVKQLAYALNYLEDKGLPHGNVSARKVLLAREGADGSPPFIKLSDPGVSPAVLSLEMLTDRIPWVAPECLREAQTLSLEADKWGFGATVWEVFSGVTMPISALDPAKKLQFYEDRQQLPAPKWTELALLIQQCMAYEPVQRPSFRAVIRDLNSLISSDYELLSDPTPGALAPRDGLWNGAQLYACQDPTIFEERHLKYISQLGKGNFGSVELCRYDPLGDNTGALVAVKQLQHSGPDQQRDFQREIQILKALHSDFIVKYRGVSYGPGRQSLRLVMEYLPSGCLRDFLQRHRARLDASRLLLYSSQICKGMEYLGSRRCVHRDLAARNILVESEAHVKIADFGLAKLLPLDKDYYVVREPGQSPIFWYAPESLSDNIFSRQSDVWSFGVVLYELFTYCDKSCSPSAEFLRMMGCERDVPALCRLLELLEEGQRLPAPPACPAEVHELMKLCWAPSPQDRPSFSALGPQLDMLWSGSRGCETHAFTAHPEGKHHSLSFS
Text: as §1, §2, §3, §4, §5
as §6, with “JAK3” for “JAK1”, “10” for “8”, “Y7” for “Y12”, “KNZ3071C,” for “KPZ3121C;”, “2” for “12.5”, “PV4080).” for “PV4775).”

Human Tyk2 kinase domain = Human Tyk2 kinase domain (Homo sapiens (Human), UniProt P29597); test: Tyk2 Inhibition Assay (Example A, Omnia kinase fluorescence peptide substrate assay); settings: TYK2 Enzyme IC50 1 mM ATP, averaged IC50 ranges
Chain of Human Tyk2 kinase domain (P29597 886-1187): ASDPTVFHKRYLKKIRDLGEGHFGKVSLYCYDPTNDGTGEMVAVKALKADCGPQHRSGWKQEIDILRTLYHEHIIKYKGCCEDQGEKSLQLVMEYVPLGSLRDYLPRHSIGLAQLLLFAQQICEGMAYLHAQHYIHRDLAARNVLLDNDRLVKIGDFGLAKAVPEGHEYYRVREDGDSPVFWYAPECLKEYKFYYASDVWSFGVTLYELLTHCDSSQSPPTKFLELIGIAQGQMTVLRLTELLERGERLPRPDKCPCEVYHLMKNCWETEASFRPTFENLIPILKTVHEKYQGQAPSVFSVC
Text: as §1, §2, §3, §4, §5
Compounds of Formula I were screened for their ability to inhibit Tyk2 using the general enzyme inhibition assay method, in which the assay mixture contained 1 mM ATP, 8 μM Omnia Y12 peptide (Catalog # IVGN KPZ3121C; Invitrogen Corporation, Carlsbad, Calif.) and 1 nM Tyk2 in a total volume of 25 μL. Human Tyk2 kinase domain, comprising amino acids 886 to 1187 with 10 additional histidine residues (histidine tag) on the carboxy terminus, was expressed and purified from bacculovirus in-house at Array BioPharma Inc. (Boulder, Colo.). The histidine tag was cleaved after purification using standard conditions.

[1] = JAK1 Enzyme IC50 1 mM ATP, 1 mM ATP, averaged IC50 ranges

Chain of JAK1 (P23458 whole entry): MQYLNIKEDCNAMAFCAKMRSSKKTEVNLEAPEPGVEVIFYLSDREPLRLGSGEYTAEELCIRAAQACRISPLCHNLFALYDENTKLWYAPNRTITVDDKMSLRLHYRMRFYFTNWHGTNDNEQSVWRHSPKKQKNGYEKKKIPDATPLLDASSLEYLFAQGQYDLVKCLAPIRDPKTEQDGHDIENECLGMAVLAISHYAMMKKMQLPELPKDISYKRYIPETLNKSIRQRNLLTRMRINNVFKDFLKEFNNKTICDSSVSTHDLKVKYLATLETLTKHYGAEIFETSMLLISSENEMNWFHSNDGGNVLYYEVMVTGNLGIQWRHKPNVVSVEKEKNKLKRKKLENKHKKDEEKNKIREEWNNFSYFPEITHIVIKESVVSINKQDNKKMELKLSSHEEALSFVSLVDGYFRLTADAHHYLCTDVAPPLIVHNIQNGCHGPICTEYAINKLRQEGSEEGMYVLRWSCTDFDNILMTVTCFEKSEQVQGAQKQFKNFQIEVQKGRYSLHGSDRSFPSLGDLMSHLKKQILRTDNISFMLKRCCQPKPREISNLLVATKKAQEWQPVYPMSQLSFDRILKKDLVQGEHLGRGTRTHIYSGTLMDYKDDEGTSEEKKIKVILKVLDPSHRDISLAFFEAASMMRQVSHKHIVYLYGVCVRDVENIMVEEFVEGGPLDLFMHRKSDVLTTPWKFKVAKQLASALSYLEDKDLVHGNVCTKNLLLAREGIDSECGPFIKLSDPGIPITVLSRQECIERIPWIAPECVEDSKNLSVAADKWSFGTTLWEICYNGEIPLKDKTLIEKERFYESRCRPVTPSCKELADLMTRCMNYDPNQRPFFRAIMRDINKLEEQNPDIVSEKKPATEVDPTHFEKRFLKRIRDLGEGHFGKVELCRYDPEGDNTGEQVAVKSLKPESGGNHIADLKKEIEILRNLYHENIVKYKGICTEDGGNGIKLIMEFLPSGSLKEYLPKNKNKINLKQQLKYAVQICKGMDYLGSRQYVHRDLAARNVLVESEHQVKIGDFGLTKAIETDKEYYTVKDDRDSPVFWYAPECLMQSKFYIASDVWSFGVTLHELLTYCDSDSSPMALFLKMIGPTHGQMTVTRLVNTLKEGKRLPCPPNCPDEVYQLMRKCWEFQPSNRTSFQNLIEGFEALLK

Structure (SMILES)	pIC50 (JAK1)	pIC50 (JAK2)	pIC50 (JAK3)	pIC50 (Human Tyk2 kinase domain)	pIC50 (JAK1; [1])
CCC(CC)n1cc(-c2nc(-c3cnn(C4CN(P(=O)(N(C)C)N(C)C)C4)c3)cn3nccc23)cn1 [Example 41, Bis-N,N-dimethyl-P-(3-(4-(4-(1-(pentan-3-yl)-1H-pyrazol-4-yl)pyrazolo[1,5-a]pyrazin-6-yl)-1H-pyrazol-1-yl)azetidin-1-yl)phosphonic amide]	6.00 to 7.00	7.00 to 8.00	5.00 to 6.00	7.00 to 8.00	
CC(C)C[C@@H](C)n1cc(-c2nc(-c3cnn(C[C@@H](O)CO)c3)cn3nccc23)cn1 [Example 77, (R)-3-(4-(4-(1-((R)-4-methylpentan-2-yl)-1H-pyrazol-4-yl)pyrazolo[1,5-a]pyrazin-6-yl)-1H-pyrazol-1-yl)propane-1,2-diol]		6.00 to 7.00	5.00 to 6.00	6.00 to 7.00	5.00 to 6.00
CCC[C@H](C)n1cc(-c2nc(-c3cnn(C[C@@H](O)CO)c3)cn3nccc23)cn1 [Example 72, (R)-3-(4-(4-(1-((S)-pentan-2-yl)-1H-pyrazol-4-yl)pyrazolo[1,5-a]pyrazin-6-yl)-1H-pyrazol-1-yl)propane-1,2-diol]		6.00 to 7.00	5.00 to 6.00	6.00 to 7.00	6.00 to 7.00
CCC(CC)n1cc(-c2nc(-c3cnn(C[C@H](N)C(C)(C)O)c3)cn3nccc23)cn1 [Example 183, (S)-3-amino-2-methyl-4-(4-(4-(1-(pentan-3-yl)-1H-pyrazol-4-yl)pyrazolo[1,5-a]pyrazin-6-yl)-1H-pyrazol-1-yl)butan-2-ol]	5.00 to 6.00	7.00 to 8.00	5.00 to 6.00	7.00 to 8.00	
CC[C@@H](n1cc(-c2nc(-c3cnn(C[C@@H](O)CO)c3)cn3nccc23)cn1)C(C)(F)F (single isomer, unassigned) [Example 199]		6.00 to 7.00	5.00 to 6.00	6.00 to 7.00	5.00 to 6.00
CCC(CC)n1cc(-c2nc(-c3cnn(C4CN(C(=O)[C@@H](C)O)C4)c3)cn3nccc23)cn1 [Example 175, (R)-2-hydroxy-1-(3-(4-(4-(1-(pentan-3-yl)-1H-pyrazol-4-yl)pyrazolo[1,5-a]pyrazin-6-yl)-1H-pyrazol-1-yl)azetidin-1-yl)propan-1-one]	5.00 to 6.00	7.00 to 8.00	5.00 to 6.00	6.00 to 7.00	
CCC(CC)n1cc(-c2nc(-c3cnn(C[C@@H](O)CN(C)C)c3)cn3nccc23)cn1 [Example 101, (S)-1-(dimethylamino)-3-(4-(4-(1-(pentan-3-yl)-1H-pyrazol-4-yl)pyrazolo[1,5-a]pyrazin-6-yl)-1H-pyrazol-1-yl)propan-2-ol]		7.00 to 8.00	5.00 to 6.00	7.00 to 8.00	5.00 to 6.00
CCC(CC)n1cc(-c2nc(-c3cnn(C[C@@H](C)CO)c3)cn3nccc23)cn1 [Example 14, (R)-2-methyl-3-(4-(4-(1-(pentan-3-yl)-1H-pyrazol-4-yl)pyrazolo[1,5-a]pyrazin-6-yl)-1H-pyrazol-1-yl)propan-1-ol]		7.00 to 8.00	5.00 to 6.00	7.00 to 8.00	7.00 to 8.00
CCC(CC)n1cc(-c2nc(-c3cnn([C@@H](C)[C@@H](C)O)c3)cn3nccc23)cn1 (single isomer, unassigned) [Example 157]		7.00 to 8.00	5.00 to 6.00	7.00 to 8.00	6.00 to 7.00
CCC(CC)n1cc(-c2nc(-c3cnn([C@H](C)[C@@H](C)O)c3)cn3nccc23)cn1 (single isomer, unassigned) [Example 156]		7.00 to 8.00	5.00 to 6.00	7.00 to 8.00	6.00 to 7.00
CCC(CC)n1cc(-c2nc(-c3cnn(C4CN(C(=O)[C@H]5C[C@@H](O)C5)C4)c3)cn3nccc23)cn1 [Example 178, (cis-3-hydroxycyclobutyl)(3-(4-(4-(1-(pentan-3-yl)-1H-pyrazol-4-yl)pyrazolo[1,5-a]pyrazin-6-yl)-1H-pyrazol-1-yl)azetidin-1-yl)methanone]	5.00 to 6.00	7.00 to 8.00	5.00 to 6.00	7.00 to 8.00	
CCC(CC)n1cc(-c2nc(-c3cnn(CC(O)C(C)(C)C)c3)cn3nccc23)cn1 (centres unmarked) [Example 112, 3,3-dimethyl-1-(4-(4-(1-(pentan-3-yl)-1H-pyrazol-4-yl)pyrazolo[1,5-a]pyrazin-6-yl)-1H-pyrazol-1-yl)butan-2-ol]	5.00 to 6.00	6.00 to 7.00	5.00 to 6.00	6.00 to 7.00	
CCC(CC)n1cc(-c2nc(-c3cnn(C[C@@H](O)COC)c3)cn3nccc23)cn1 [Example 107, (R)-1-methoxy-3-(4-(4-(1-(pentan-3-yl)-1H-pyrazol-4-yl)pyrazolo[1,5-a]pyrazin-6-yl)-1H-pyrazol-1-yl)propan-2-ol]	6.00 to 7.00	7.00 to 8.00	5.00 to 6.00	7.00 to 8.00	
CCC(CC)n1cc(-c2nc(-c3cnn(C4CN(C(=O)CN5CC(O)C5)C4)c3)cn3nccc23)cn1 [Example 180, 2-(3-hydroxyazetidin-1-yl)-1-(3-(4-(4-(1-(pentan-3-yl)-1H-pyrazol-4-yl)pyrazolo[1,5-a]pyrazin-6-yl)-1H-pyrazol-1-yl)azetidin-1-yl)ethanone]		6.00 to 7.00	5.00 to 6.00	6.00 to 7.00	5.00 to 6.00
CCC(CC)n1cc(-c2nc(-c3cnn(CC(O)CO)c3)cn3nccc23)cn1 (centres unmarked) [Example 58, 3-(4-(4-(1-(pentan-3-yl)-1H-pyrazol-4-yl)pyrazolo[1,5-a]pyrazin-6-yl)-1H-pyrazol-1-yl)propane-1,2-diol]		7.00 to 8.00	5.00 to 6.00	7.00 to 8.00	6.00 to 7.00
CCC(CC)n1cc(-c2nc(-c3cnn(CC4(CO)COC4)c3)cn3nccc23)cn1 [Example 16, (3-((4-(4-(1-(pentan-3-yl)-1H-pyrazol-4-yl)pyrazolo[1,5-a]pyrazin-6-yl)-1H-pyrazol-1-yl)methyl)oxetan-3-yl)methanol]	7.00 to 8.00	7.00 to 8.00	5.00 to 6.00	7.00 to 8.00	
CCC(CC)n1cc(-c2nc(-c3cnn(CC(O)CCO)c3)cn3nccc23)cn1 (centres unmarked) [Example 63, 4-(4-(4-(1-(pentan-3-yl)-1H-pyrazol-4-yl)pyrazolo[1,5-a]pyrazin-6-yl)-1H-pyrazol-1-yl)butane-1,3-diol]	6.00 to 7.00	7.00 to 8.00	5.00 to 6.00	7.00 to 8.00	
CCC(CC)n1cc(-c2nc(-c3cnn(CC4(O)CCN(C(C)=O)CC4)c3)cn3nccc23)cn1 [Example 185, 1-(4-hydroxy-4-((4-(4-(1-(pentan-3-yl)-1H-pyrazol-4-yl)pyrazolo[1,5-a]pyrazin-6-yl)-1H-pyrazol-1-yl)methyl)piperidin-1-yl)ethanone]	6.00 to 7.00	6.00 to 7.00	5.00 to 6.00	6.00 to 7.00	
CCC(CC)n1cc(-c2nc(-c3cnn([C@H]4CCC[C@@H]4O)c3)cn3nccc23)cn1 (single isomer, unassigned) [Example 154]		7.00 to 8.00	5.00 to 6.00	7.00 to 8.00	6.00 to 7.00
CCC(CC)n1cc(-c2nc(-c3cnn(C4CN(C(=O)C(=O)N(C)C)C4)c3)cn3nccc23)cn1 [Example 182, N,N-dimethyl-2-oxo-2-(3-(4-(4-(1-(pentan-3-yl)-1H-pyrazol-4-yl)pyrazolo[1,5-a]pyrazin-6-yl)-1H-pyrazol-1-yl)azetidin-1-yl)acetamide]	6.00 to 7.00	7.00 to 8.00	5.00 to 6.00	7.00 to 8.00	
